# Values quoted from earlier work, collected in PMC3459150 (Atherosclerosis, 2012).
# Tests used:
# [1] = system: dyslipidemic mouse models
# [2] = apo E null mice
# [3] = system: apoE null mice; details: chronic administration
Half-time of clearance ([2]; peritoneally-injected) [h],Sequence,Inhibition of atherosclerosis [1],Plasma cholesterol levels [1],"Half-time of clearance, rapid phase ([2]; intravenous, bi-phasic) [h]","Half-time of clearance, slow phase ([2]; intravenous, bi-phasic) [h]",Atheroprotection / inhibition of atherosclerosis [3]
2.01,DWFKAFYDKVAEKFKEAF [4F],able to inhibit atherosclerosis,without changing plasma cholesterol levels,,,
,LRKLRKRLLRDWLKAFYDKVAEKLKEAF [Ac-hE18A-NH2],,,0.027,1.61,inhibits atherosclerosis
